{
  "source": "patent US6964959B2",
  "about": "“Use of a methylol-containing compound to treat tumors” (Carter Wallace, Inc., priority 1999, dated 2005)",
  "key": {"[1]": {"system": "MDR-transfected glioblastoma cells", "assay": "Cytotoxicity in MDR-transfected glioblastoma cells", "conditions": "transfected vs untransfected glioblastoma cells", "source_text": "The neoplastic cell lines used in the survey were standard tumor cell lines, e.g., PA1 human ovarian cell line, SKOV3 human ovarian cell line, HT29 human colon tumor cell line, DU145 human prostate tumor cell line, U251 human glioblastoma cell line, U251-MDR human glioblastoma cell line transfected with DNA encoding MDR, T98G human glioblastoma cell line, SP-1 human leukemia cell line, and Daudi human leukemia cell line.\nGlioblastoma cells were transfected with a gene encoding multiple drug resistance (MDR)."}, "[2]": {"system": "human cancer cell lines", "assay": "Cytotoxic activity of taurultam in human cancer cell lines", "type": "cell-based", "experimental": "The cytotoxic activity of taurultam was evaluated in vitro using the same human cancer cell lines as described above. […] The data also indicate that the cytotoxic effect is directly proportionate to the number of methylol molecules liberated per molecule of methylol-containing compound"}},
  "data": [
    {"smiles": "COc1cccc2c1C(=O)c1c(O)c3c(c(O)c1C2=O)C[C@@](O)(C(=O)CO)C[C@@H]3O[C@H]1C[C@H](N)[C@H](O)[C@H](C)O1", "note": "[adriamycin]", "values": [
      {"measurement": "resistance of MDR-transfected cells", "setting": "[1]", "value": "100-1000 times"}
    ]},
    {"smiles": "O=S1(=O)CCNCN1", "note": "[taurultam]", "values": [
      {"measurement": "induction of apoptotic death", "setting": "[2]; cancer cells vs normal control cells", "value": "induced apoptotic death of cancer cells but not normal control cells"},
      {"measurement": "cytotoxic activity relative to the activity observed with taurolidine", "setting": "[2]; same human cancer cell lines as for taurolidine", "value": "approximately 75%"}
    ]}
  ]
}
